Measured values taken from PMC12494099, “Discovery and Characterization of Novel IKZF1/3 Glue Degraders against Multiple Hematological Cancer Cell Lines” (Oncology Research, 2025).

Assays:
Format in all cases: cell-based
MV-4-11 = test: Cell viability (CCK-8) assay; details: 96 h, CCK-8
Protocol: (§1) The plated at a density of 15,000 cells per well, and each well contained 100 µL of medium. Subsequently, different compounds (MGD-AX, MGD-BX, MGD-CX) were added to each well. […] To evaluate the antiproliferative effects of these compounds, the Cell Counting Kit-8 (CCK-8, #CX007, Epizyme, Shanghai, China) was used. All procedures were carried out in strict accordance with the manufacturer’s instructions (Dojindo Laboratories, Mamoto Ken, Japan).

NCI-H929 = test: Cell viability (CCK-8) assay
Protocol: as §1

Ocl-Ly3 = test: Cell viability (CCK-8) assay; details: 96 h, CCK-8
Protocol: as §1

IKZF1-HiBiT = target: T1, IKZF1-HiBiT (Homo sapiens, UniProt Q13422+Q96SW2); test: Quantitative degradation assay using the HiBiT system (HEK293T); details: HEK-293T; HEK293T IKZF1-HiBiT, 24 h; read-out: maximal degradation (Dmax) on IKZF1
T1 construct: expressed in transfected cells; host or cells: HEK293T
Protocol: (§2) An in vitro quantitative degradation assay utilizing the HiBiT system was carried out as previously described. To evaluate the degradation of IKZF1, IKZF2, and IKZF3 proteins, HEK293T cell lines stably expressing IKZF1-, IKZF2-, IKZF3-, GSPT1- or CK1α-HiBiT were cultured in 96-well plates at 12,000 cells per well. […] After the treatment, cell lysis was carried out using the Nano-Glo HiBiT Lytic Detection System (#N3040, Promega). All lysis operations were strictly carried out according to the manufacturer’s specific protocol. Then, the SpectraMax iD3 instrument (Molecular Devices, San Jose, CA, USA) was used to detect the luminescent signals released by the HiBiT-tagged neosubstrates.

IKZF3-HiBiT = target: T2, IKZF3-HiBiT (Homo sapiens, UniProt Q96SW2+Q9UKT9); test: as above; details: HEK-293T; HEK293T IKZF3-HiBiT, 24 h; read-out: maximal degradation (Dmax) on IKZF3
T2 construct: expressed in transfected cells; host or cells: HEK293T
Protocol: as §2

T2 sequence (Q9UKT9 whole entry): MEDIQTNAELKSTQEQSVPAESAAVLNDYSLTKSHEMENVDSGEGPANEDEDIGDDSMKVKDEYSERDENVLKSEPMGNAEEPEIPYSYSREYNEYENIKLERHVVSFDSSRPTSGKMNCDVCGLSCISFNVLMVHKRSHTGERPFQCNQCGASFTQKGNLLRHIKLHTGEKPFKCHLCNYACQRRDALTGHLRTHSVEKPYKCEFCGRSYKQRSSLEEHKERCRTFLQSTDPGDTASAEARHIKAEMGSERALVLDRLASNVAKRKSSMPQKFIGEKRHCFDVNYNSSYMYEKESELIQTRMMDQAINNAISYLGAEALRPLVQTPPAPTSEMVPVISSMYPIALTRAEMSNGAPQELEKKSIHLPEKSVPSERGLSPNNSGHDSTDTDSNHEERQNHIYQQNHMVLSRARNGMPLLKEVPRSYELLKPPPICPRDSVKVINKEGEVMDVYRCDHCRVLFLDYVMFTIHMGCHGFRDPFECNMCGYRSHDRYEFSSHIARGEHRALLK
T2 sequence (Q96SW2 whole entry): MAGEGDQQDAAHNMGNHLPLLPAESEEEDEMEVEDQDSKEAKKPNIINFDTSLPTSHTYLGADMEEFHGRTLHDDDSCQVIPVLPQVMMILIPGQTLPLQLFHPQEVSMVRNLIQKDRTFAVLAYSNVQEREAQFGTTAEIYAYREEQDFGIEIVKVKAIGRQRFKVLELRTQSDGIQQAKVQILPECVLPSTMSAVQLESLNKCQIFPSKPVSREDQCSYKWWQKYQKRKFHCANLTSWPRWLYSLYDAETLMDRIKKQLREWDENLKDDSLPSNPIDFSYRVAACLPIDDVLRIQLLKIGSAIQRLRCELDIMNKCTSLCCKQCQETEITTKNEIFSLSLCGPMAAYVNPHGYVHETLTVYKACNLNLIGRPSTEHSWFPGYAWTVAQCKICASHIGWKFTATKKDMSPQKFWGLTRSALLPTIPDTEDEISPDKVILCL
T2 sequence (Q16531 whole entry partner): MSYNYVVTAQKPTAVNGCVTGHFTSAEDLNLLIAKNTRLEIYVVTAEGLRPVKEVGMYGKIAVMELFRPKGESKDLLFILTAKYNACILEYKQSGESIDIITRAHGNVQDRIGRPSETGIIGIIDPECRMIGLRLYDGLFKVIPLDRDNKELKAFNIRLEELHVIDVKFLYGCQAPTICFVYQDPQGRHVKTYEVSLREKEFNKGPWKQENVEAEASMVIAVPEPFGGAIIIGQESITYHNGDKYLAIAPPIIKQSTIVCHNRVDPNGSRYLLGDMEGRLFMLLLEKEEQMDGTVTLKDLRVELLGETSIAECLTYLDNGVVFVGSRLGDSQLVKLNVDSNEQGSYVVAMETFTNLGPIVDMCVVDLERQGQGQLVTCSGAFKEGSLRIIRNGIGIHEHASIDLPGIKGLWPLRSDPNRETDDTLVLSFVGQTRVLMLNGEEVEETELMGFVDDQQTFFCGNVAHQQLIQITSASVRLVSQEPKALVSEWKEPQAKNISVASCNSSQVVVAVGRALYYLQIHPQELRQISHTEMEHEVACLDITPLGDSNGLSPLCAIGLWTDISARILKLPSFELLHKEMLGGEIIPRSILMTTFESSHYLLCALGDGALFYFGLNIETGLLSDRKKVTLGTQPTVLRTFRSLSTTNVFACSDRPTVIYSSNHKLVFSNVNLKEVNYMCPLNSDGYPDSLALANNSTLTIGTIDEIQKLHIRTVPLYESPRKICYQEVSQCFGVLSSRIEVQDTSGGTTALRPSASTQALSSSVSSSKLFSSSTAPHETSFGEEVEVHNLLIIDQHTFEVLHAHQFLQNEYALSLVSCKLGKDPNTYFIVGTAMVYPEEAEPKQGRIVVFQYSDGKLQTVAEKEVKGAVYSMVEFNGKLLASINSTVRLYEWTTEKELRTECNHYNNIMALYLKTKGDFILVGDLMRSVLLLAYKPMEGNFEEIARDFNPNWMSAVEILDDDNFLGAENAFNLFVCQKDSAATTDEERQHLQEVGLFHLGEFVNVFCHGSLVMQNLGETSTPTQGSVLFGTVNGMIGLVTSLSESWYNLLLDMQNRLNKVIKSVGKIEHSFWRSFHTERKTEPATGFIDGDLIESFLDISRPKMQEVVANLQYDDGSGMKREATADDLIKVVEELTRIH
T1 sequence (Q13422 whole entry): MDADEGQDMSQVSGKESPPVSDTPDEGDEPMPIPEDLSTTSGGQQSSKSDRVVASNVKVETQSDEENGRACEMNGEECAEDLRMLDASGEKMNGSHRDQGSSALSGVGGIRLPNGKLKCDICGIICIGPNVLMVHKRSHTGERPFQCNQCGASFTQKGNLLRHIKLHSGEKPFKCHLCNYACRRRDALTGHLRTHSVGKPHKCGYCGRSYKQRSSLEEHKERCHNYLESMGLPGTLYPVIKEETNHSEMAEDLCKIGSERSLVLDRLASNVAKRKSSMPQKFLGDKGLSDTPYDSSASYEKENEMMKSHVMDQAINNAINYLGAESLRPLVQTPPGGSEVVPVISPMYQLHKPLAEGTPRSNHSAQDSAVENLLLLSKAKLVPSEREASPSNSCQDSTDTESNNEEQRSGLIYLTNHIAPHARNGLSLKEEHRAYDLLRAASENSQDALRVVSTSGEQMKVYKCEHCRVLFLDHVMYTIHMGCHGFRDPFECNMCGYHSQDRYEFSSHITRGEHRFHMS
T1 sequence (Q96SW2 whole entry): as the sequence (Q96SW2 whole entry) above
T1 sequence (Q16531 whole entry partner): as the sequence (Q16531 whole entry partner) above

Row | IC50 (MV-4-11; Homo sapiens, MV4-11, 96 h) [µM] | IC50 (NCI-H929; Homo sapiens, NCI-H929, 96 h) [µM] | Dmax (IKZF1-HiBiT) [%] | Dmax (IKZF3-HiBiT) [%] | IC50 (MV-4-11) [µM] | IC50 (NCI-H929; 96 h) [µM] | Compound | IC50 (Ocl-Ly3) [µM]
1 | 0.85 | 0.2 | 80.4 | 83.1 | – | – | Cc1nc2cccc(N)c2c(=O)n1C1CCC(=O)NC1=O (centres unmarked) [Avadomide, reference compound] | 15.5
2 | 17.9 ± 1.7 | 7.36 ± 0.7 | – | – | – | – | Nc1cccc2c1CN(C1CCC(=O)NC1=O)C2=O (centres unmarked) [Lenalidomide, reference compound] | 27.6 ± 2.63
3 | 7.34 ± 0.7 | 10.3 ± 0.98 | – | – | – | – | O=C1CCC(NC(=O)c2cccc(CNC3CC3)c2)C(=O)N1 (centres unmarked) [MGD-A1, 3-((cyclopropylamino)methyl)-N-(2,6-dioxopiperidin-3-yl)benzamide] | > 33
4 | 8.3 ± 0.79 | 12.7 ± 1.21 | – | – | – | – | O=C1CCC(NC(=O)c2cccc(CNCC3CC3)c2)C(=O)N1 (centres unmarked) [MGD-A2, 3-(((cyclopropylmethyl)amino)methyl)-N-(2,6-dioxopiperidin-3-yl)benzamide] | 21.3 ± 2.03
5 | 6.03 ± 0.58 | 5.39 ± 0.51 | – | – | – | – | CC1CCCCN1Cc1cccc(C(=O)NC2CCC(=O)NC2=O)c1 (centres unmarked) [MGD-A3, N-(2,6-dioxopiperidin-3-yl)-3-((2-methylpiperidin-1-yl)methyl)benzamide] | 7.27 ± 0.69
6 | 3.11 ± 0.3 | 4.56 ± 0.44 | – | – | – | – | CC1CCCN(Cc2cccc(C(=O)NC3CCC(=O)NC3=O)c2)C1 (centres unmarked) [MGD-A4, N-(2,6-dioxopiperidin-3-yl)-3-((3-methylpiperidin-1-yl)methyl)benzamide] | 6.33 ± 0.6
7 | 2.03 ± 0.19 | 2.88 ± 0.28 | – | – | – | – | CC1CCN(Cc2cccc(C(=O)NC3CCC(=O)NC3=O)c2)CC1 (centres unmarked) [MGD-A5, N-(2,6-dioxopiperidin-3-yl)-3-((4-methylpiperidin-1-yl)methyl)benzamide] | 4.03 ± 0.38
8 | 3.44 ± 0.33 | 3.02 ± 0.38 | – | – | – | – | CC1CCCC(C)N1Cc1cccc(C(=O)NC2CCC(=O)NC2=O)c1 (centres unmarked) [MGD-A6, 3-((2,6-dimethylpiperidin-1-yl)methyl)-N-(2,6-dioxopiperidin-3-yl)benzamide] | 5.9 ± 0.56
9 | 0.8 ± 0.1 | 0.9 ± 0.13 | – | – | – | – | CCN1CCN(Cc2cccc(C(=O)NC3CCC(=O)NC3=O)c2)CC1 (centres unmarked) [MGD-A8, N-(2,6-dioxopiperidin-3-yl)-3-((4-ethylpiperazin-1-yl)methyl)benzamide] | 4.12 ± 0.39
10 | 9.26 ± 0.88 | 10.3 ± 0.98 | – | – | – | – | CC1CCCC(C)N1C(=O)c1cccc(C(=O)NC2CCC(=O)NC2=O)c1 (centres unmarked) [MGD-A13, 3-(2,6-dimethylpiperidine-1-carbonyl)-N-(2,6-dioxopiperidin-3-yl)benzamide] | 17.2 ± 1.64
11 | 4.45 ± 0.42 | 6.9 ± 0.66 | – | – | – | – | O=C1CCC(NC(=O)c2cccc(C(=O)N3CCSCC3)c2)C(=O)N1 (centres unmarked) [MGD-A15, N-(2,6-dioxopiperidin-3-yl)-3-(thiomorpholine-4-carbonyl)benzamide] | 9.43 ± 0.9
12 | 15 ± 1.42 | 7.9 ± 0.75 | – | – | – | – | O=C1CCC(NC(=O)c2cccc(CN3CCCC3)n2)C(=O)N1 (centres unmarked) [MGD-B1, N-(2,6-dioxopiperidin-3-yl)-6-(pyrrolidin-1-ylmethyl)picolinamide] | 22.4 ± 2.13
13 | 6.78 ± 0.65 | 8.5 ± 0.81 | – | – | – | – | O=C1CCC(NC(=O)c2cccc(CN3CCCCC3)n2)C(=O)N1 (centres unmarked) [MGD-B2, N-(2,6-dioxopiperidin-3-yl)-6-(piperidin-1-ylmethyl)picolinamide] | > 33
14 | 0.72 ± 0.13 | 0.92 ± 0.12 | – | – | – | – | CN1CCN(Cc2cccc(C(=O)NC3CCC(=O)NC3=O)n2)CC1 (centres unmarked) [MGD-B3, N-(2,6-dioxopiperidin-3-yl)-6-((4-methylpiperazin-1-yl)methyl)picolinamide] | 2.03 ± 0.39
15 | 3.02 ± 0.29 | 4.65 ± 0.44 | – | – | – | – | O=C1CCC(NC(=O)c2cccc(CN3CCOCC3)n2)C(=O)N1 (centres unmarked) [MGD-B4, N-(2,6-dioxopiperidin-3-yl)-6-(morpholinomethyl)picolinamide] | 15 ± 1.42
16 | 1.58 ± 0.47 | 2.77 ± 0.36 | – | – | – | – | O=C1CCC(NC(=O)c2cccc(CN3CCSCC3)n2)C(=O)N1 (centres unmarked) [MGD-B5, N-(2,6-dioxopiperidin-3-yl)-6-(thiomorpholinomethyl)picolinamide] | 4.68 ± 2.44

Row | IC50 (MV-4-11; Homo sapiens, MV4-11, 96 h) [µM] | IC50 (NCI-H929; Homo sapiens, NCI-H929, 96 h) [µM] | Dmax (IKZF1-HiBiT) [%] | Dmax (IKZF3-HiBiT) [%] | IC50 (MV-4-11) [µM] | IC50 (NCI-H929; 96 h) [µM] | Compound | IC50 (Ocl-Ly3) [µM]
17 | 3.34 ± 0.32 | 4.89 ± 0.47 | – | – | – | – | O=C1CCC(NC(=O)c2cccc(CN3CCCC3=O)n2)C(=O)N1 (centres unmarked) [MGD-B6, N-(2,6-dioxopiperidin-3-yl)-6-((2-oxopyrrolidin-1-yl)methyl)picolinamide] | 27.5 ± 2.62
18 | 5.65 ± 0.54 | 3.21 ± 0.31 | – | – | – | – | O=C1CCC(NC(=O)c2cccc(CN3CCCCC3=O)n2)C(=O)N1 (centres unmarked) [MGD-B7, N-(2,6-dioxopiperidin-3-yl)-6-((2-oxopiperidin-1-yl)methyl)picolinamide] | 15.2 ± 1.44
19 | 1.33 ± 0.13 | 1.77 ± 0.17 | – | – | – | – | CN1CCN(Cc2cccc(C(=O)NC3CCC(=O)NC3=O)n2)C(=O)C1 (centres unmarked) [MGD-B8, N-(2,6-dioxopiperidin-3-yl)-6-((4-methyl-2-oxopiperazin-1-yl)methyl)picolinamide] | 8.43 ± 0.8
20 | 1.93 ± 0.18 | 2.34 ± 0.22 | – | – | – | – | O=C1CCC(NC(=O)c2cccc(CN3CCOCC3=O)n2)C(=O)N1 (centres unmarked) [MGD-B9, N-(2,6-dioxopiperidin-3-yl)-6-((3-oxomorpholino)methyl)picolinamide] | 9.35 ± 0.89
21 | 5.54 ± 0.53 | 4.32 ± 0.41 | – | – | – | – | O=C1CCC(NC(=O)c2cccc(CN3CCSCC3=O)n2)C(=O)N1 (centres unmarked) [MGD-B10, N-(2,6-dioxopiperidin-3-yl)-6-((3-oxothiomorpholino)methyl)picolinamide] | 13.2 ± 1.26
22 | 0.54 ± 0.05 | 0.77 ± 0.04 | – | – | – | – | CN1CCN(Cc2cccc(C(=O)NC3CCC(=O)NC3=O)c2F)CC1 (centres unmarked) [MGD-C2, N-(2,6-dioxopiperidin-3-yl)-2-fluoro-3-((4-methylpiperazin-1-yl)methyl)benzamide] | 1.64 ± 0.37
23 | 0.93 ± 0.048 | 1.98 ± 0.19 | – | – | – | – | O=C1CCC(NC(=O)c2cccc(CN3CCOCC3)c2F)C(=O)N1 (centres unmarked) [MGD-C3, N-(2,6-dioxopiperidin-3-yl)-2-fluoro-3-(morpholinomethyl)benzamide] | 2.39 ± 0.23
24 | 2.43 ± 0.33 | 1.79 ± 0.27 | – | – | – | – | O=C1CCC(NC(=O)c2cccc(CN3CCSCC3)c2F)C(=O)N1 (centres unmarked) [MGD-C4, N-(2,6-dioxopiperidin-3-yl)-2-fluoro-3-(thiomorpholinomethyl)benzamide] | 5.01 ± 0.48
25 | 2.22 ± 0.21 | 2.04 ± 0.19 | – | – | – | – | O=C1CCC(NC(=O)c2cccc(CN3CCCC3=O)c2F)C(=O)N1 (centres unmarked) [MGD-C5, N-(2,6-dioxopiperidin-3-yl)-2-fluoro-3-((2-oxopyrrolidin-1-yl)methyl)benzamide] | 5.05 ± 0.48
26 | 1.63 ± 0.16 | 1.33 ± 0.13 | – | – | – | – | O=C1CCC(NC(=O)c2cccc(CN3CCCCC3=O)c2F)C(=O)N1 (centres unmarked) [MGD-C6, N-(2,6-dioxopiperidin-3-yl)-2-fluoro-3-((2-oxopiperidin-1-yl)methyl)benzamide] | 5.95 ± 0.57
27 | 0.68 ± 0.07 | 0.93 ± 0.15 | – | – | – | – | O=C1CCC(NC(=O)c2cccc(CN3CCOCC3=O)c2F)C(=O)N1 (centres unmarked) [MGD-C7, N-(2,6-dioxopiperidin-3-yl)-2-fluoro-3-((3-oxomorpholino)methyl)benzamide] | 2.11 ± 0.2
28 | 26.5 ± 2.52 | 9.86 ± 0.94 | – | – | – | – | O=C1CCC(N2C(=O)c3ccccc3C2=O)C(=O)N1 (centres unmarked) [Thalidomide, reference compound] | > 33
29 | – | – | – | – | 1.73 ± 0.17 | 1.23 ± 0.12 | N-(2,6-dioxopiperidin-3-yl)-2-fluoro-3-((2-oxopiperidin-1-yl)methyl)benzamide [MGD-C8] | 3.28 ± 0.31
30 | – | – | – | – | 7.36 ± 0.7 | 6.91 ± 0.66 | N-(2,6-dioxopiperidin-3-yl)-2-fluoro-3-(piperidin-1-ylmethyl)benzamide [MGD-C1] | 12.6 ± 1.2
31 | – | – | – | – | 1.9 ± 0.18 | 2.11 ± 0.2 | N-(2,6-dioxopiperidin-3-yl)-3-(thiomorpholinomethyl)cyclohexa-1,3-diene-1-carboxamide [MGD-A9] | 5.44 ± 0.52
